# Data as given in paper PMC8463443 (Acta Pharmaceutica Sinica. B, 2021).
# Where no end group is shown, it is not given here.
# Experiments:
# [1] = test system: monkey kidney cell line Vero E6; assay: Cell viability, Vero E6; type: cell-based; conditions: monkey kidney cell line Vero E6 (Fig. S6)
# [2] = Water solubility of peptide; type: physicochemical; conditions: in words, method not given
sequence,measurement,setting,value
KLTFLEYWAQLMQK [M3-2K],effect on viability of Vero E6,[1],neither PMI-2K nor M3-2K had any effect on the viability
same,water solubility,[2],improved peptide solubility
